Patent publication US9604983B2, “Herbicidal 3-(2-benzyloxyphenyl)-2,4-dihydroxy-1,8-naphthyridine derivatives” (SYNGENTA LIMITED, priority 2013, dated 2017)

Columns and labels:
Experiment in all cases: Post-emergence efficacy, glasshouse pot test
Assay type in all cases: in vivo
Conditions in all cases: post-emergence application at 1000 g/ha; evaluated after 13 days; five point scale
[1] = system: Alopecurus myosuroides (ALOMY)
Experimental: (§1) B1 Post-emergence Efficacy Seeds of a variety of test species are sown in standard soil in pots:—Solanum nigrum (SOLNI), Amaranthus retoflexus (AMARE), Setaria faberi (SETFA), Alopecurus myosuroides (ALOMY), Echinochloa crus-galli (ECHCG), Ipomoea hederacea (IPOHE). After 8 days cultivation (post-emergence) under controlled conditions in a glasshouse (at 24/16° C., day/night; 14 hours light; 65% humidity), the plants are sprayed with an aqueous spray solution derived from the formulation of the technical active ingredient in acetone/water (50:50) solution containing 0.5% Tween 20 (polyoxyethelyene sorbitan monolaurate, CAS RN 9005-64-5). Compounds are applied at 1000 g/ha. The test plants are then grown in a glasshouse under controlled conditions in a glasshouse (at 24/16° C., day/night; 14 hours light; 65% humidity) and watered twice daily. After 13 days, the test is evaluated for the percentage damage caused to the plant. The biological activities are shown below in Table 13, on a five point scale (5=80-100%; 4=60-79%; 3=40-59%; 2=20-39%; 1=0-19%).

[2] = system: Amaranthus retoflexus (AMARE)
Experimental: as §1

[3] = system: Echinochloa crus-galli (ECHCG)
Experimental: as §1

[4] = system: Ipomoea hederacea (IPOHE)
Experimental: as §1

[5] = system: Setaria faberi (SETFA)
Experimental: as §1

[6] = system: Solanum nigrum (SOLNI)
Experimental: as §1

SMILES	percentage damage caused to the plant, ALOMY [1]	percentage damage caused to the plant, AMARE [2]	percentage damage caused to the plant, ECHCG [3]	percentage damage caused to the plant, IPOHE [4]	percentage damage caused to the plant, SETFA [5]	percentage damage caused to the plant, SOLNI [6]
C#CCn1c(=O)c(-c2c(Cl)ccc(Cl)c2OCc2ccccc2)c(OC(=O)C(C)C)c2cccnc21 [Compound 1.001, [3-(2-Benzyloxy-3,6-dichloro-phenyl)-2-oxo-1-prop-2-ynyl-1,8-naph-thyridin-4-yl]2-methylpropanoate]	2 (2=20-39%)	5 (5=80-100%)	4 (4=60-79%)	5 (5=80-100%)	4 (4=60-79%)	5 (5=80-100%)
C#CCn1c(=O)c(-c2c(Cl)ccc(Cl)c2OCc2ccc(Cl)cc2)c(OC(=O)C(C)C)c2cccnc21 [Compound 1.003]	1 (1=0-19%)	5 (5=80-100%)	4 (4=60-79%)	5 (5=80-100%)	3 (3=40-59%)	5 (5=80-100%)
C#CCn1c(=O)c(-c2c(Cl)ccc(Cl)c2OCc2ccc(C)cc2)c(OC(=O)C(C)C)c2cccnc21 [Compound 1.004]	1 (1=0-19%)	5 (5=80-100%)	3 (3=40-59%)	3 (3=40-59%)	1 (1=0-19%)	5 (5=80-100%)
C#CCn1c(=O)c(-c2c(Cl)ccc(Cl)c2OCc2ccccc2)c(OC(=O)C(C)C)c2c(OC)ccnc21 [Compound 1.007]	1 (1=0-19%)	4 (4=60-79%)	1 (1=0-19%)	1 (1=0-19%)	1 (1=0-19%)	4 (4=60-79%)
C#CCn1c(=O)c(-c2c(Cl)ccc(Cl)c2OCc2ccccc2)c(OC(=O)C(C)C)c2nccnc21 [Compound 1.008]	5 (5=80-100%)	5 (5=80-100%)	5 (5=80-100%)	5 (5=80-100%)	5 (5=80-100%)	5 (5=80-100%)
C#CCn1c(=O)c(-c2c(Cl)ccc(Cl)c2OCc2ccccc2)c(O)c2cccnc21 [Compound 2.001, 3-(2-Benzyloxy-3,6-dichloro-phenyl)-4-hydroxy-1-prop-2-ynyl-1,8-naphthyridin-2-one]	5 (5=80-100%)	5 (5=80-100%)	5 (5=80-100%)	5 (5=80-100%)	5 (5=80-100%)	5 (5=80-100%)
C#CCn1c(=O)c(-c2c(Cl)ccc(Cl)c2OCc2ccc(OC)cc2)c(O)c2cccnc21 [Compound 2.002]	5 (5=80-100%)	4 (4=60-79%)	5 (5=80-100%)	5 (5=80-100%)	5 (5=80-100%)	5 (5=80-100%)
C#CCn1c(=O)c(-c2c(Cl)ccc(Cl)c2OCc2ccc(Cl)cc2)c(O)c2cccnc21 [Compound 2.003]	3 (3=40-59%)	5 (5=80-100%)	5 (5=80-100%)	5 (5=80-100%)	4 (4=60-79%)	5 (5=80-100%)
C#CCn1c(=O)c(-c2c(Cl)ccc(Cl)c2OCc2ccc(C)cc2)c(O)c2cccnc21 [Compound 2.004]	4 (4=60-79%)	5 (5=80-100%)	4 (4=60-79%)	5 (5=80-100%)	4 (4=60-79%)	5 (5=80-100%)
C#CCn1c(=O)c(-c2c(Cl)ccc(Cl)c2OCc2ccc(C(F)(F)F)cc2)c(O)c2cccnc21 [Compound 2.006]	4 (4=60-79%)	5 (5=80-100%)	5 (5=80-100%)	5 (5=80-100%)	5 (5=80-100%)	5 (5=80-100%)
C#CCn1c(=O)c(-c2c(Cl)ccc(Cl)c2OCc2ccccc2)c(O)c2nccnc21 [Compound 2.008]	5 (5=80-100%)	5 (5=80-100%)	5 (5=80-100%)	5 (5=80-100%)	5 (5=80-100%)	5 (5=80-100%)
CC(C)C(=O)Oc1c(-c2c(Cl)ccc(Cl)c2OCc2ccccc2)c(=O)n(CC(F)F)c2ncccc12 [Compound 3.001]	2 (2=20-39%)	5 (5=80-100%)	2 (2=20-39%)	5 (5=80-100%)	1 (1=0-19%)	5 (5=80-100%)
CC(C)C(=O)Oc1c(-c2c(Cl)ccc(Cl)c2OCc2ccc(Cl)cc2)c(=O)n(CC(F)F)c2ncccc12 [Compound 3.003]	1 (1=0-19%)	5 (5=80-100%)	1 (1=0-19%)	5 (5=80-100%)	1 (1=0-19%)	5 (5=80-100%)
Cc1ccc(COc2c(Cl)ccc(Cl)c2-c2c(OC(=O)C(C)C)c3cccnc3n(CC(F)F)c2=O)cc1 [Compound 3.004]	1 (1=0-19%)	4 (4=60-79%)	1 (1=0-19%)	5 (5=80-100%)	1 (1=0-19%)	5 (5=80-100%)
CC(C)C(=O)Oc1c(-c2c(Cl)ccc(Cl)c2OCc2ccc(C(F)(F)F)cc2)c(=O)n(CC(F)F)c2ncccc12 [Compound 3.006]	1 (1=0-19%)	5 (5=80-100%)	1 (1=0-19%)	5 (5=80-100%)	1 (1=0-19%)	5 (5=80-100%)
COc1ccnc2c1c(OC(=O)C(C)C)c(-c1c(Cl)ccc(Cl)c1OCc1ccccc1)c(=O)n2CC(F)F [Compound 3.007]	1 (1=0-19%)	4 (4=60-79%)	1 (1=0-19%)	2 (2=20-39%)	1 (1=0-19%)	2 (2=20-39%)
CC(C)C(=O)Oc1c(-c2c(Cl)ccc(Cl)c2OCc2ccccc2)c(=O)n(CC(F)F)c2nccnc12 [Compound 3.008]	4 (4=60-79%)	5 (5=80-100%)	5 (5=80-100%)	5 (5=80-100%)	5 (5=80-100%)	5 (5=80-100%)
O=c1c(-c2c(Cl)ccc(Cl)c2OCc2ccccc2)c(O)c2cccnc2n1CC(F)F [Compound 4.001]	4 (4=60-79%)	5 (5=80-100%)	4 (4=60-79%)	5 (5=80-100%)	1 (1=0-19%)	5 (5=80-100%)
O=c1c(-c2c(Cl)ccc(Cl)c2OCc2ccc(Cl)cc2)c(O)c2cccnc2n1CC(F)F [Compound 4.003]	1 (1=0-19%)	5 (5=80-100%)	2 (2=20-39%)	5 (5=80-100%)	1 (1=0-19%)	5 (5=80-100%)
Cc1ccc(COc2c(Cl)ccc(Cl)c2-c2c(O)c3cccnc3n(CC(F)F)c2=O)cc1 [Compound 4.004]	2 (2=20-39%)	5 (5=80-100%)	2 (2=20-39%)	5 (5=80-100%)	1 (1=0-19%)	5 (5=80-100%)
